Results published in publication PMC10746543, “Design principles for cyclin K molecular glue degraders” (Nature Chemical Biology, 2023).
Several values for one entry are separate records, joined by “and”; a condition that tells them apart may be missing. Identical values can stand only once. Like-named read-outs stand apart in the source and are kept apart here.

Key:
HEK293T cells = test: Drug sensitivity assay (CellTiter-Glo viability) with or without MLN4924 pretreatment; assay type: cell-based, human; details: for EC50: Homo sapiens, HEK-293T; for Toxicity rescue: MLN4924-mediated cytotoxicity rescue, 10 µM used where n.d.
Procedure, shortened: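 HEK293T–Cas9 cells at 0.15 × 10^6 ml^−1 were treated with DMSO or 100 nM MLN4924 before plating. Test drugs were added 2 h later and exposure lasted 3 days. Viability was read by CellTiter-Glo luminescence and expressed relative to DMSO controls.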

[1] = system: cyclin K–eGFP degradation reporter; test: Cyclin K reporter stability analysis (dual-color cyclin K–eGFP reporter); assay type: cell-based, human
Description: HEK293T–Cas9 cells expressing the cyclin K–eGFP degradation reporter were resuspended at 1 × 10^6 ml^−1 and 50 µl of cell suspension was seeded in non-cell-culture-treated 384-well plates. Shortly after, cells were treated with drug or DMSO for 5 h. […] The fluorescent signal was quantified by flow cytometry (LSRFortessa flow cytometer, BD Biosciences). Using FlowJo (flow cytometry analysis software, BD Biosciences), the geometric mean of the eGFP and mCherry fluorescent signal for round and mCherry-positive cells was calculated. The ratio of eGFP to mCherry was normalized to the average of three DMSO-treated controls.

CDK12–cyclin K and DDB1 = molecular target: T1, CDK12–cyclin K and DDB1 (Homo sapiens, UniProt Q16531+Q9NYV4, K965R); test: TR-FRET ternary complex formation assay (compound titration); assay type: binding; details: for TR-FRET signal at compound concentration: replicate titrations
T1 construct: His6–CDK12 (a.a. 713–1,052); full-length or beta-propeller B domain deletion (ΔBPB: a.a. 396–705 deleted) constructs of His6–DDB1ΔBPB, StrepII–Avi–DDB1, or His6–Spy–DDB1; made in house; host or cells: Trichoplusia ni High Five insect cells (baculovirus)
T1 sequence (Q9NYV4 713-1052 K965R): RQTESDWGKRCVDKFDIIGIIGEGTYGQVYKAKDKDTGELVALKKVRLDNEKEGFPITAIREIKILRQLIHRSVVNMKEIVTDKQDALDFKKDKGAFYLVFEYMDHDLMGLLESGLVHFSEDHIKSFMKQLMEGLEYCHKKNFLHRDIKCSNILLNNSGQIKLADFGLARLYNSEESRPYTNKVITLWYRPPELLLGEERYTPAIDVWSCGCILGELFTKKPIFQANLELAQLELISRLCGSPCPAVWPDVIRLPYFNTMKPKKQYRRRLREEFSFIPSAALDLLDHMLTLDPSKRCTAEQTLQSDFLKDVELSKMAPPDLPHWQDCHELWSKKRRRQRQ
T1 sequence (O75909 1-267 partner): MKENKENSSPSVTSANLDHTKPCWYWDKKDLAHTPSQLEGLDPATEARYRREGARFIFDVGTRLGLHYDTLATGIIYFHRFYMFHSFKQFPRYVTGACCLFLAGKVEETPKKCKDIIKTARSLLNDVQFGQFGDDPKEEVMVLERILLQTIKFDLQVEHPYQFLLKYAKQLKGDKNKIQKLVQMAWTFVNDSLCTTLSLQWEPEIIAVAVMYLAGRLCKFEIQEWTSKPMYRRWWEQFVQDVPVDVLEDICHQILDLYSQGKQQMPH
T1 sequence (Q16531 whole entry): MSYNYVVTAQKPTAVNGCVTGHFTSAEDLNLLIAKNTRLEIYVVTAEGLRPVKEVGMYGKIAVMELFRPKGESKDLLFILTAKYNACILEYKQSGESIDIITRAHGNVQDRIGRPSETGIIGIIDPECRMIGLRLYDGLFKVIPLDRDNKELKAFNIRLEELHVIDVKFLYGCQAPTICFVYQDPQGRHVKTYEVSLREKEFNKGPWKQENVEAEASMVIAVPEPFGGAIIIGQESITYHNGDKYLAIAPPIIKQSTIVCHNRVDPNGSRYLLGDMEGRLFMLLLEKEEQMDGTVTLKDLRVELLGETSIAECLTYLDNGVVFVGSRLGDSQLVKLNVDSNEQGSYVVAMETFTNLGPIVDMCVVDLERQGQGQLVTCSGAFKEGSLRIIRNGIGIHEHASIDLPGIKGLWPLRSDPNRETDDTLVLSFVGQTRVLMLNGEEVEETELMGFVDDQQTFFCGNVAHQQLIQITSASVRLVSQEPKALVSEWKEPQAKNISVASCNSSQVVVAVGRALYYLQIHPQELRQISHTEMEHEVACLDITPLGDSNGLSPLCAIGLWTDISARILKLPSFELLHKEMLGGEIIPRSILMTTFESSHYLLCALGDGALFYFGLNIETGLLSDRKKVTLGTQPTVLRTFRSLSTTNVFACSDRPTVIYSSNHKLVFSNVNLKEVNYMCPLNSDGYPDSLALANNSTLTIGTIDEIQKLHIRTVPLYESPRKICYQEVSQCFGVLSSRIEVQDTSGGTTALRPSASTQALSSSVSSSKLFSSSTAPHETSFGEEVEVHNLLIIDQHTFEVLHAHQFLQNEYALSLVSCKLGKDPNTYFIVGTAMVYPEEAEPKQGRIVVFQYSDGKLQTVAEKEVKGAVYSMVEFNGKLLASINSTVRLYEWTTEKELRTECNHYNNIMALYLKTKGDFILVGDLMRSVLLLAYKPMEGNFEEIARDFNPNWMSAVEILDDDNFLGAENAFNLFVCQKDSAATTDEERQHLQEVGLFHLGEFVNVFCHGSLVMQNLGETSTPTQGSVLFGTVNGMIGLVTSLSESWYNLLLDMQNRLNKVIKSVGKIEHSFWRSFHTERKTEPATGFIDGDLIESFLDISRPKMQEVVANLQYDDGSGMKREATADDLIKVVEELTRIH
Procedure, shortened: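 Read-out used a 70 μs delay to cut background fluorescence; TR-FRET signal taken as the 520 nm/490 nm emission ratio.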

[2] = Supplementary Table 2, HEK293T viability, 72 h, compound alone, read-out: Cellular assays EC50
[3] = source data sheet correlations, read-out: DC50
[4] = compound concentration 0.468 nM
[5] = compound concentration 7.92001 nM
[6] = compound concentration 15.84 nM
[7] = compound concentration 30.96 nM
[8] = compound concentration 62.6401 nM
[9] = compound concentration 125.28 nM
[10] = compound concentration 244.8 nM
[11] = compound concentration 993.601 nM
[12] = compound concentration 2001.6 nM
[13] = in vitro complex formation, 50 nM CDK12–cyclin K, 100 nM DDB1, text and figures, read-out: TR-FRET EC50
[14] = sheet MOESM7, read-out: log TR-FRET EC50 (converted)
[15] = source data sheet correlations, read-out: TR-FRET EC50

CC[C@H](CO)Nc1nc(NCc2ccc3ccccc3c2)c2ncn(C(C)C)c2n1 [DS08]
EC50 (HEK293T cells; Supplementary Fig. 5, HEK293T, CellTiter Glo, 72h, read-out: Viability EC50, no MLN4924): 3380 nM | EC50 (HEK293T cells; [2]): 3500 nM | Toxicity rescue (HEK293T cells; Supplementary Table 2): 186% | DC50 [1, 3]: 724 nM | TR-FRET signal (CDK12–cyclin K and DDB1; [4]): 0.2538 and 0.248 and 0.2145 and 0.2136 | TR-FRET signal, individual replicate (CDK12–cyclin K and DDB1; [4]): 0.2538 and 0.248 and 0.2145 and 0.2136 | TR-FRET signal at compound concentration (CDK12–cyclin K and DDB1; [4]): 0.2538 and 0.248 and 0.2145 and 0.2136 | TR-FRET signal (CDK12–cyclin K and DDB1; compound concentration 2.16 nM): 0.2768 and 0.2874 and 0.2634 and 0.2686 | TR-FRET signal, individual replicate (CDK12–cyclin K and DDB1; compound concentration 2.16 nM): 0.2768 and 0.2874 and 0.2634 and 0.2686 | TR-FRET signal at compound concentration (CDK12–cyclin K and DDB1; compound concentration 2.16 nM): 0.2768 and 0.2874 and 0.2634 and 0.2686 | TR-FRET signal (CDK12–cyclin K and DDB1; compound concentration 3.6 nM): 0.3502 and 0.3555 and 0.3511 and 0.3733 | TR-FRET signal, individual replicate (CDK12–cyclin K and DDB1; compound concentration 3.6 nM): 0.3502 and 0.3555 and 0.3511 and 0.3733 | TR-FRET signal at compound concentration (CDK12–cyclin K and DDB1; compound concentration 3.6 nM): 0.3502 and 0.3555 and 0.3511 and 0.3733 | TR-FRET signal (CDK12–cyclin K and DDB1; [5]): 0.4902 and 0.4911 and 0.5114 and 0.5651 | TR-FRET signal, individual replicate (CDK12–cyclin K and DDB1; [5]): 0.4902 and 0.4911 and 0.5114 and 0.5651 | TR-FRET signal at compound concentration (CDK12–cyclin K and DDB1; [5]): 0.4902 and 0.4911 and 0.5114 and 0.5651 | TR-FRET signal (CDK12–cyclin K and DDB1; [6]): 0.7316 and 0.7507 and 0.8127 and 0.857 | TR-FRET signal, individual replicate (CDK12–cyclin K and DDB1; [6]): 0.7316 and 0.7507 and 0.8127 and 0.857 | TR-FRET signal at compound concentration (CDK12–cyclin K and DDB1; [6]): 0.7316 and 0.7507 and 0.8127 and 0.857 | TR-FRET signal (CDK12–cyclin K and DDB1; [7]): 1.126 and 1.191 and 1.297 and 1.247 | TR-FRET signal, individual replicate (CDK12–cyclin K and DDB1; [7]): 1.126 and 1.191 and 1.297 and 1.247 | TR-FRET signal at compound concentration (CDK12–cyclin K and DDB1; [7]): 1.126 and 1.191 and 1.297 and 1.247 | TR-FRET signal (CDK12–cyclin K and DDB1; [8]): 1.6143 and 1.736 and 1.841 and 1.867 | TR-FRET signal, individual replicate (CDK12–cyclin K and DDB1; [8]): 1.6143 and 1.736 and 1.841 and 1.867 | TR-FRET signal at compound concentration (CDK12–cyclin K and DDB1; [8]): 1.6143 and 1.736 and 1.841 and 1.867 | TR-FRET signal (CDK12–cyclin K and DDB1; [9]): 2.093 and 2.298 and 2.427 and 2.467 | TR-FRET signal, individual replicate (CDK12–cyclin K and DDB1; [9]): 2.093 and 2.298 and 2.427 and 2.467 | TR-FRET signal at compound concentration (CDK12–cyclin K and DDB1; [9]): 2.093 and 2.298 and 2.427 and 2.467 | TR-FRET signal (CDK12–cyclin K and DDB1; [10]): 2.523 and 2.773 and 2.7872 and 2.833 | TR-FRET signal, individual replicate (CDK12–cyclin K and DDB1; [10]): 2.523 and 2.773 and 2.7872 and 2.833 | TR-FRET signal at compound concentration (CDK12–cyclin K and DDB1; [10]): 2.523 and 2.773 and 2.7872 and 2.833 | TR-FRET signal (CDK12–cyclin K and DDB1; [11]): 2.957 and 3.301 and 3.125 and 3.145 | TR-FRET signal, individual replicate (CDK12–cyclin K and DDB1; [11]): 2.957 and 3.301 and 3.125 and 3.145 | TR-FRET signal at compound concentration (CDK12–cyclin K and DDB1; [11]): 2.957 and 3.301 and 3.125 and 3.145 | TR-FRET signal (CDK12–cyclin K and DDB1; [12]): 3.117 and 3.31 and 3.185 and 3.127 | TR-FRET signal, individual replicate (CDK12–cyclin K and DDB1; [12]): 3.117 and 3.31 and 3.185 and 3.127 | TR-FRET signal at compound concentration (CDK12–cyclin K and DDB1; [12]): 3.117 and 3.31 and 3.185 and 3.127 | EC50 (CDK12–cyclin K and DDB1; [13]): 60 nM | EC50 (CDK12–cyclin K and DDB1; [14]): 60.3 nM | EC50 (CDK12–cyclin K and DDB1; [15]): 60.3 nM

CC[C@H](CO)Nc1nc(NCc2ccc(-c3ccncc3)nc2)c2ncn(C(C)C)c2n1 [DS53]
EC50 (HEK293T cells; [2]): 635 nM | Toxicity rescue (HEK293T cells; Supplementary Table 2): 140% | DC50 [1, 3]: 260 nM | TR-FRET signal at compound concentration 0.468 nM (CDK12–cyclin K and DDB1; compound concentration 0.468 nM, raw titration data): 0.2712 and 0.18 and 0.1818 | TR-FRET signal at compound concentration 2.16 nM (CDK12–cyclin K and DDB1; compound concentration 2.16 nM, raw titration data): 0.3079 and 0.2048 and 0.2158 | TR-FRET signal at compound concentration 3.6 nM (CDK12–cyclin K and DDB1; compound concentration 3.6 nM, raw titration data): 0.3797 and 0.262 and 0.2749 | TR-FRET signal at compound concentration 7.92001 nM (CDK12–cyclin K and DDB1; compound concentration 7.92001 nM, raw titration data): 0.5132 and 0.3757 and 0.3886 | TR-FRET signal at compound concentration 15.84 nM (CDK12–cyclin K and DDB1; compound concentration 15.84 nM, raw titration data): 0.7262 and 0.5713 and 0.5982 | TR-FRET signal at compound concentration 30.96 nM (CDK12–cyclin K and DDB1; compound concentration 30.96 nM, raw titration data): 1.044 and 0.9086 and 0.9152 | TR-FRET signal at compound concentration 62.6401 nM (CDK12–cyclin K and DDB1; compound concentration 62.6401 nM, raw titration data): 1.465 and 1.176 and 1.2036 | TR-FRET signal at compound concentration 125.28 nM (CDK12–cyclin K and DDB1; compound concentration 125.28 nM, raw titration data): 1.697 and 1.379 and 1.374 | TR-FRET signal at compound concentration 244.8 nM (CDK12–cyclin K and DDB1; compound concentration 244.8 nM, raw titration data): 1.763 and 1.446 and 1.498 | TR-FRET signal at compound concentration 993.601 nM (CDK12–cyclin K and DDB1; compound concentration 993.601 nM, raw titration data): 1.748 and 1.523 and 1.543 | TR-FRET signal at compound concentration 2001.6 nM (CDK12–cyclin K and DDB1; compound concentration 2001.6 nM, raw titration data): 1.731 and 1.529 and 1.559 | EC50 (CDK12–cyclin K and DDB1; [13]): 28 ± 2 nM | EC50 (CDK12–cyclin K and DDB1; [15]): 27.7 nM

CC[C@H](CO)Nc1nc(NCCOCc2ccccc2)c2ncn(C(C)C)c2n1 [DS40]
EC50 (HEK293T cells; [2]): > 10000 nM | Toxicity rescue (HEK293T cells; Supplementary Table 2): 0% | DC50 ([1]; Supplementary Table 2, HEK293T cycK-eGFP reporter, 5 h, read-out: Cellular assays DC50): > 10000 nM | TR-FRET signal (CDK12–cyclin K and DDB1; compound concentration 4.68 nM): 0.2076 and 0.2321 | TR-FRET signal (CDK12–cyclin K and DDB1; compound concentration 21.6 nM): 0.2226 and 0.2483 | TR-FRET signal (CDK12–cyclin K and DDB1; compound concentration 36 nM): 0.2561 and 0.2746 | TR-FRET signal (CDK12–cyclin K and DDB1; compound concentration 79.2001 nM): 0.3133 and 0.3047 | TR-FRET signal (CDK12–cyclin K and DDB1; compound concentration 158.4 nM): 0.4014 and 0.4131 | TR-FRET signal (CDK12–cyclin K and DDB1; compound concentration 309.6 nM): 0.5676 and 0.5799 | TR-FRET signal (CDK12–cyclin K and DDB1; compound concentration 626.401 nM): 0.7977 and 0.8028 | TR-FRET signal (CDK12–cyclin K and DDB1; compound concentration 1252.8 nM): 1.088 and 1.118 | TR-FRET signal (CDK12–cyclin K and DDB1; compound concentration 2448 nM): 1.44 and 1.508 | TR-FRET signal (CDK12–cyclin K and DDB1; compound concentration 9936.01 nM): 1.852 and 2.056 | TR-FRET signal (CDK12–cyclin K and DDB1; compound concentration 20016 nM): 1.876 and 2.063 | EC50 (CDK12–cyclin K and DDB1; [14]): 1300 nM
